Test results as given in patent US20060029544A1, “Receptor-binding cyclic peptides and methods of use” (The Regents of the University of California Office of …, priority 2004, published 2006).

What was measured:
αIIbβ3 integrin = molecular target: T1, αIIbβ3 integrin (Homo sapiens, UniProt P05106+P08514); assay: ELISA: biotinylated fibrinogen binding to captured soluble αIIbβ3-mFc in the presence of RGD peptides
T1 construct: chimeras comprising the extracellular domain of αvβ3, αvβ5, α5β1, and αIIbβ3 linked to the Fc domain of either mouse IgG; purchased Celltech plc (supplied, no catalogue number); host or cells: unpurified hybridoma / tissue culture supernatant from secreting cells
Description: (§1) Four different soluble integrins were supplied by Celltech plc. Soluble forms of αvβ3, αvβ5, α5β1, and αIIbβ3 integrin were generated by constructing chimeras comprising the extracellular domain of αvβ3, αvβ5, α5β1, and αIIbβ3 linked to the Fc domain of either mouse IgG (αvβ3-mFc, αvβ5-mFc, and αIIbβ3-mFc) or human IgG (α5β1-hFc) as described by Stephens et al., Cell Adhes. Commun., 7:377-390 (2000) and Coe et al., J. Biol. Chem., 276:35854-35866 (2001). Since the four soluble integrin chimeras were supplied either as purified proteins (αvβ3-mFc and α5β1-hFc) or as unpurified hybridoma supernatants (αIIbβ3-mFc and αvβ5-mFc), it was necessary to use two types of ELISAs. […] In one type of ELISA (FIGS. 2A and 2B), the immobilized component is a 50 kDa fragment of fibronectin. In the second type of ELISA (FIGS. 2C and 2D), the immobilized component is a goat anti-mFc antibody that is used to capture chimeric proteins so that the RGD binding site of the integrin is maximally exposed. Each three-sided box in FIG. 2 represents a single well of a 96-well plate, and the components are listed in the sequence of their addition to the assay. The immobilized component at the bottom of the well is bound to the well by electrostatic interactions.
The plates were washed with PBS using a Denley Wellwash 4 Mk 2. Washing was repeated twice with a 400 μl wash per well. 200 μl/well of blocking buffer was then added for 1 hour followed by a repeat washing with PBS. 100 μl of tissue culture supernatant from cells secreting soluble αIIbβ3-mFc or αvβ5-mFc, diluted 1:2 in conjugate buffer, was added to each well. […] After incubation, the plates were washed with PBS as described above. 100 μl of neutravidin-peroxidase was added to each well and the plates were incubated for 30 minutes with shaking, followed by two washes with PBS. 100 μl of TMB substrate was added to each well and the plates were shaken during color development. Plates were read using a plate spectrophotometer at 630 nm.
(§2) Two negative and two positive controls were used in both types of ELISAs.
(§3) FIGS. 3-6 illustrate the percent binding of the vitronectin, fibronectin, or fibrinogen ligand to αvβ5, α5β1, αIIbβ3, or αvβ3 integrin in the presence of RGD peptides (i.e., linear (A), cyclic (B), or 4-[^19F]-fluorobenzoyl cyclic (C)) at different concentrations, with 100% maximum signal being the signal obtained in the absence of the peptide.

α5β1 integrin = molecular target: T2, α5β1 integrin (Homo sapiens, UniProt P05556+P08648); assay: ELISA: soluble α5β1-hFc binding to immobilized 50 kDa fibronectin fragment in the presence of RGD peptides
T2 construct: chimeras comprising the extracellular domain of αvβ3, αvβ5, α5β1, and αIIbβ3 linked to the Fc domain of either mouse IgG; purchased Celltech plc (supplied, no catalogue number)
Description: as §1
To analyze the affinity and selectively of RGD peptides for αvβ3 and α5β1, 96-well ELISA plates were coated with 100 μl of a 5 μg/ml of the 50 kDa fragment of fibronectin in PBS per well and left overnight at 4° C. The plates were washed with PBS using a Denley Wellwash 4 Mk 2. Washing was repeated twice with a 400 μl wash per well. 200 μ/well of blocking buffer (i.e., to prevent non-specific binding of proteins) was then added for 1 hour followed by a repeat washing with PBS. RGD peptides were then added at a maximum concentration of 200 μM and a preliminary screen was performed at three concentrations, 200,20, and 2 μM. 100 μl of an RGD peptide was added to each well and each assay was performed in triplicate. Purified soluble αvβ3-mFc or purified α5β1-hFc was diluted to 2 μg/ml and 15 ng/ml, respectively, in conjugate buffer and 100 μl was added to each well. The plates were incubated for 2 hours with shaking using a Luckham R100 Rotatest at approximately 150 rpm. After incubation, the plates were washed with PBS as previously described and a labeled antibody was added. For the αvβ3 assay, a horseradish peroxidase (HRP)-labeled F(ab′)2 fragment of goat anti-mouse IgG Fc was diluted 1:2000 in conjugate buffer and 100 μl was added to each well. For the α5β1 assay, an HRP-labeled F(ab′)2 fragment of goat anti-human IgG Fc was diluted 1:2000 in conjugate buffer and 100 μl was added to each well. Plates were incubated for 30 minutes with shaking followed by 2 washes with PBS. 100 μl of TMB substrate was added to each well and plates were shaken during a 10 minute color development. Plates were read using a plate spectrophotometer at 630 nm.
(§4) Two negative and two positive controls were used in both types of ELISAs. For example, the negative controls were wells that contained 50 μl of an active control peptide, integrin, and biotinylated ligand or 50 μl of the active control peptide and 50 μl of buffer. These negative control wells typically develop little to no color. […] These wells typically develop the maximum amount of color.
as §3

αvβ5 integrin = molecular target: T3, αvβ5 integrin (Homo sapiens, UniProt P06756+P18084); assay: ELISA: biotinylated vitronectin binding to captured soluble αvβ5-mFc in the presence of RGD peptides
T3 construct: chimeras comprising the extracellular domain of αvβ3, αvβ5, α5β1, and αIIbβ3 linked to the Fc domain of either mouse IgG; purchased Celltech plc (supplied, no catalogue number); host or cells: unpurified hybridoma / tissue culture supernatant from secreting cells
Description: as §1
To analyze the affinity and selectively of RGD peptides for αIIbβ3 and αvβ5, 96-well ELISA plates were coated with anti-murine Fc antibody at 5 μg/ml in PBS, 100 μl per well and left overnight at 4° C. The plates were washed with PBS using a Denley Wellwash 4 Mk 2. Washing was repeated twice with a 400 μl wash per well. 200 μl/well of blocking buffer was then added for 1 hour followed by a repeat washing with PBS. 100 μl of tissue culture supernatant from cells secreting soluble αIIbβ3-mFc or αvβ5-mFc, diluted 1:2 in conjugate buffer, was added to each well. Plates were incubated with shaking for 1 hour followed by two washes with PBS. 100 μl of an RGD peptide (at concentrations of 200, 20, and 2 μM), followed by either 100 μl of biotinylated fibrinogen (at 1 μg/ml in conjugate buffer) or 100 μl of biotinylated vitronectin (at 2 μg/ml in conjugate buffer) were added to each well and incubated for 2 hours with shaking. After incubation, the plates were washed with PBS as described above. 100 μl of neutravidin-peroxidase was added to each well and the plates were incubated for 30 minutes with shaking, followed by two washes with PBS. 100 μl of TMB substrate was added to each well and the plates were shaken during color development. Plates were read using a plate spectrophotometer at 630 nm.
as §4, §3

αvβ3 integrin = molecular target: T4, αvβ3 integrin (Homo sapiens, UniProt P05106+P06756); assay: ELISA: soluble αvβ3-mFc binding to immobilized 50 kDa fibronectin fragment in the presence of RGD peptides
T4 construct: chimeras comprising the extracellular domain of αvβ3, αvβ5, α5β1, and αIIbβ3 linked to the Fc domain of either mouse IgG; purchased Celltech plc (supplied, no catalogue number)
Description: as §1
The plates were washed with PBS using a Denley Wellwash 4 Mk 2. Washing was repeated twice with a 400 μl wash per well. […] Plates were read using a plate spectrophotometer at 630 nm.
as §2, §3

VUP melanoma cell line [1] = assay: Adhesion assay: [51Cr]-VUP cells to vitronectin; assay type: cell-based; conditions: 20 μM peptide
Experimental: (§5) RGD peptides were plated at a maximum concentration of 200 μM and a minimum concentration of 2 nM. For each RGD peptide sequence, linear peptides (A), cyclic peptides (B), and 4-[^19F]-fluorobenzoyl cyclic peptides (C) were assayed. Each RGD peptide concentration was performed in quadruplicate and each experiment was repeated twice.
(§6) Plastic 96-well plates (Falcon 3912; Becton Dickinson) were coated with 50 μl substrate (10 μg/ml laminin or 5 μg/ml vitronectin). The plates were incubated at 37° C. in an 8% CO2 atmosphere for 1 hour. Unbound protein was flicked off and the plates were washed with phosphate buffered saline (PBS) and blocked with bovine serum albumin (0.1% w/v BSA)/PBS/0.1% sodium azide) for 1 hour. The plates were then washed with PBS, placed on a bed of ice and 25 μl of peptide was added to the wells.
(§7) Sodium [^51Cr] chromate was purchased from Amersham International, UK. […]
(§8) 25 μl (about 10,000 cells) were added to each quadruplicate well and the plates incubated at 37° C. in an 8% CO2 atmosphere for 1 hour. […] The radioactivity associated with each well was determined in a gamma counter (1261 Multigamma; Wallac, Sweden). Quadruplicate 25 μl samples of labeled cells were counted as 100% input values. To determine non-specific binding, the ability of cells to bind BSA-coated wells was also assessed. […]
(§9) The results were calculated as follows: [formula] […]

VUP melanoma cell line [2] = assay: Adhesion assay: [51Cr]-VUP cells to laminin; assay type: cell-based; conditions: highest concentration (200 μM)
Experimental: as §5, §6
(§10) Sodium [^51Cr] chromate was purchased from Amersham International, UK. The solution was made isotonic by the addition of 110 μl 10× Hanks buffered salt solution. 100 μl of this solution (3.7 MBq) was added to 5-10×10^6 cells in 500 μl of serum-containing growth medium. The suspension was incubated at 37° C. for 45 minutes with regular agitation to resuspend the cells. The cells were then washed and spun 3 times with serum-free E4 medium to remove any free [^51Cr]chromium. A trypan blue viability count was performed and the cells were diluted to the necessary volume in serum-free E4 medium (4×10^5 cells/ml).
25 μl (about 10,000 cells) were added to each quadruplicate well and the plates incubated at 37° C. in an 8% CO2 atmosphere for 1 hour. Unbound cells were flicked off and the plates were washed twice with PBS/BSA containing 1 mM CaCl2 and 0.5 mM MgCl2. The plates were dabbed dry and cut into individual wells. The radioactivity associated with each well was determined in a gamma counter (1261 Multigamma; Wallac, Sweden). Quadruplicate 25 μl samples of labeled cells were counted as 100% input values. To determine non-specific binding, the ability of cells to bind BSA-coated wells was also assessed. […]
as §9

A375M melanoma cell line [3] = assay: Adhesion assay: [51Cr]-A375M cells to laminin; assay type: cell-based, human; conditions: 200 μM peptide
Experimental: as §5, §6, §10
25 μl (about 10,000 cells) were added to each quadruplicate well and the plates incubated at 37° C. in an 8% CO2 atmosphere for 1 hour. Unbound cells were flicked off and the plates were washed twice with PBS/BSA containing 1 mM CaCl2 and 0.5 mM MgCl2. The plates were dabbed dry and cut into individual wells. The radioactivity associated with each well was determined in a gamma counter (1261 Multigamma; Wallac, Sweden). Quadruplicate 25 μl samples of labeled cells were counted as 100% input values. To determine non-specific binding, the ability of cells to bind BSA-coated wells was also assessed. Data for these wells are referred to as background.
The results were calculated as follows: [formula] [formula] NMR Spectroscopy of RGD Peptides
The A375M and VUP melanoma cell lines were used with vitronectin and laminin as substrates. Peptides were titrated in 10-fold dilutions from 200 μM to 2 nM. All data were normalized to the absence of peptide, which corresponded to 100% adhesion. All titrations were performed in quadruplicate and each experiment was repeated at least twice.

A375M melanoma cell line [4] = assay: Adhesion assay: [51Cr]-A375M cells to vitronectin; assay type: cell-based, human; conditions: 20 μM peptide
Experimental: as §5, §6, §7, §8, §9

[5] = preliminary screen 2, 20, 200 μM

T3 sequence (P06756 31-992 limits assumed): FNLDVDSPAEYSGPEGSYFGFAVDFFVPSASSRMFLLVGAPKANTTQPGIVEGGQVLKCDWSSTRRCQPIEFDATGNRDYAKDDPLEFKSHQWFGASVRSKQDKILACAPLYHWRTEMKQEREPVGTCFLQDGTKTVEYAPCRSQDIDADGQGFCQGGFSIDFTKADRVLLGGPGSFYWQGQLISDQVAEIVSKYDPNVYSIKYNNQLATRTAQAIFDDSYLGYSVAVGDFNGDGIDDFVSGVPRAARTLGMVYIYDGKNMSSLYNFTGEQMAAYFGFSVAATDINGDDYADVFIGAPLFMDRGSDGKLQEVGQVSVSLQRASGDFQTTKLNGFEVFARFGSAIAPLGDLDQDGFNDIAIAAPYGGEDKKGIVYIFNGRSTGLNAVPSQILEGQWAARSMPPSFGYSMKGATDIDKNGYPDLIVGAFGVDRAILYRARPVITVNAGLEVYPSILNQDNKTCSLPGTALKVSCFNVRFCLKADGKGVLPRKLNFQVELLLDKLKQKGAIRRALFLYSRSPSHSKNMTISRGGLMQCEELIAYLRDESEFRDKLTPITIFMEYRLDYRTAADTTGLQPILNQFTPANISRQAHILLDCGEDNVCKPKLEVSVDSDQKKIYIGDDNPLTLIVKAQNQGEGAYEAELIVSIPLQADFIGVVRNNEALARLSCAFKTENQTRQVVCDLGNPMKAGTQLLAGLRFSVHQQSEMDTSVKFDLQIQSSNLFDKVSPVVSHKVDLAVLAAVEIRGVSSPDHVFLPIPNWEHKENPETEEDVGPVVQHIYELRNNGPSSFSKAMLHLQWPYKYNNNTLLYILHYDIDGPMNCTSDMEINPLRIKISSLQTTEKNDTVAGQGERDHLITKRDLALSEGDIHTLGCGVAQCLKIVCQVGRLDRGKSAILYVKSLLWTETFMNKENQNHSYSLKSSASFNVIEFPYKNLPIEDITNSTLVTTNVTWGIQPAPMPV
T3 sequence (P18084 24-719 limits assumed): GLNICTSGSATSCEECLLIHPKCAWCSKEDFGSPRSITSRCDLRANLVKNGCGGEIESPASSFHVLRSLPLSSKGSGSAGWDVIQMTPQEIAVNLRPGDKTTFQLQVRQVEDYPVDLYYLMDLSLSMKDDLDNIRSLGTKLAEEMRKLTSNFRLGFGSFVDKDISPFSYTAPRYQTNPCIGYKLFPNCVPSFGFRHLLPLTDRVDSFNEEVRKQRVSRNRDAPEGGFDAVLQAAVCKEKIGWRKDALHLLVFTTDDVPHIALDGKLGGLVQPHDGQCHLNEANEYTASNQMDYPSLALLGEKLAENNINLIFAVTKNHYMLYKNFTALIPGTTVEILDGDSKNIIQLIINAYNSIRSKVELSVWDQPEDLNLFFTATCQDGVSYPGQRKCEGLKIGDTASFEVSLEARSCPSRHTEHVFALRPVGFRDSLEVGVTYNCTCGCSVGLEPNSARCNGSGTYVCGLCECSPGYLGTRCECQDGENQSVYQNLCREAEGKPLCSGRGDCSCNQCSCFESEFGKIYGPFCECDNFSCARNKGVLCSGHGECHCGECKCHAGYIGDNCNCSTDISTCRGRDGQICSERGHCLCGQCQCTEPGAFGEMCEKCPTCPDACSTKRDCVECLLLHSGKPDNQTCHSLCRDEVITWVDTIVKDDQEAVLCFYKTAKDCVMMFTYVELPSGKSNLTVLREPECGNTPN
T2 sequence (P08648 42-995 limits assumed): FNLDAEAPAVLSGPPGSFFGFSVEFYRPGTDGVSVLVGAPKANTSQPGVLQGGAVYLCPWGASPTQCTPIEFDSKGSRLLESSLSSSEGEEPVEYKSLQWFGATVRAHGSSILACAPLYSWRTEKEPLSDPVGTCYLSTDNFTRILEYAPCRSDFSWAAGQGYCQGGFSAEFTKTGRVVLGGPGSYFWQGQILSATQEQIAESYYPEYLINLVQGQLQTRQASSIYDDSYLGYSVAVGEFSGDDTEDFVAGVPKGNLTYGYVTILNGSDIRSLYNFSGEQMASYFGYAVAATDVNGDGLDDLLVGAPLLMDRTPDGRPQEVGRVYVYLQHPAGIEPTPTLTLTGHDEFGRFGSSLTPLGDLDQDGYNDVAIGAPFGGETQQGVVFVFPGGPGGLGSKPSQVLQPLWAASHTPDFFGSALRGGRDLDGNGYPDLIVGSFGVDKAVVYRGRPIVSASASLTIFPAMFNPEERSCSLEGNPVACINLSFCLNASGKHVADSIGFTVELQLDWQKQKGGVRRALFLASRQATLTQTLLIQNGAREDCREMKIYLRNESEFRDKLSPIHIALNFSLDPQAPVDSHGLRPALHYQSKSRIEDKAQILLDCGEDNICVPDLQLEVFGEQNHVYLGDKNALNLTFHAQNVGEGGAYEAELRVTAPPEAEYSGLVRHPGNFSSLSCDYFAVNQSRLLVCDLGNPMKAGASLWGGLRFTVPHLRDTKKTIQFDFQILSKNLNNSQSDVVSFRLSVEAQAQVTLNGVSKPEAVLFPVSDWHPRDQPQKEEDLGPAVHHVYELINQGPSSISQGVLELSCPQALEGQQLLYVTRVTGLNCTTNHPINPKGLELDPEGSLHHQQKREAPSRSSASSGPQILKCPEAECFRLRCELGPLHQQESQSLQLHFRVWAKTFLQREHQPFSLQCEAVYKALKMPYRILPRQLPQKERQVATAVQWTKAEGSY
T2 sequence (P05556 21-728 limits assumed): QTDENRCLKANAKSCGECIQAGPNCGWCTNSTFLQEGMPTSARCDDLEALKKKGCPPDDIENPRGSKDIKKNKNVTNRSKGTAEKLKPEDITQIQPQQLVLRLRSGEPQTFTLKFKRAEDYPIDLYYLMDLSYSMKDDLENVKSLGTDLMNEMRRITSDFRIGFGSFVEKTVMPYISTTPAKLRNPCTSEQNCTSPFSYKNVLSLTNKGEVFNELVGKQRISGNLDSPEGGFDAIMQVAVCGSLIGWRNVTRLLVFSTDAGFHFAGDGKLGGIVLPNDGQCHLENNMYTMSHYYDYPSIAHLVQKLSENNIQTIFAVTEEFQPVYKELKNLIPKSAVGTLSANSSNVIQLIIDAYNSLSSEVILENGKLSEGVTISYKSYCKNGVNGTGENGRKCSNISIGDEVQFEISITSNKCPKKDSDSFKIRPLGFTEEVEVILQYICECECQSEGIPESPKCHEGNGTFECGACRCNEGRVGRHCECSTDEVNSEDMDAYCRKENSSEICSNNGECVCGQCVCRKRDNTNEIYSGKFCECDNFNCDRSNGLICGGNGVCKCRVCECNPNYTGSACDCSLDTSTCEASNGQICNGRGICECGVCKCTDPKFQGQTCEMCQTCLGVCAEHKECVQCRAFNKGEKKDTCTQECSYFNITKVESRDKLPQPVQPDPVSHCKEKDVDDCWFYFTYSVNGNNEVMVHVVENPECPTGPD
T4 sequence (P06756 31-992 limits assumed): as the sequence (P06756 31-992 limits assumed) above
T4 sequence (P05106 27-718 limits assumed): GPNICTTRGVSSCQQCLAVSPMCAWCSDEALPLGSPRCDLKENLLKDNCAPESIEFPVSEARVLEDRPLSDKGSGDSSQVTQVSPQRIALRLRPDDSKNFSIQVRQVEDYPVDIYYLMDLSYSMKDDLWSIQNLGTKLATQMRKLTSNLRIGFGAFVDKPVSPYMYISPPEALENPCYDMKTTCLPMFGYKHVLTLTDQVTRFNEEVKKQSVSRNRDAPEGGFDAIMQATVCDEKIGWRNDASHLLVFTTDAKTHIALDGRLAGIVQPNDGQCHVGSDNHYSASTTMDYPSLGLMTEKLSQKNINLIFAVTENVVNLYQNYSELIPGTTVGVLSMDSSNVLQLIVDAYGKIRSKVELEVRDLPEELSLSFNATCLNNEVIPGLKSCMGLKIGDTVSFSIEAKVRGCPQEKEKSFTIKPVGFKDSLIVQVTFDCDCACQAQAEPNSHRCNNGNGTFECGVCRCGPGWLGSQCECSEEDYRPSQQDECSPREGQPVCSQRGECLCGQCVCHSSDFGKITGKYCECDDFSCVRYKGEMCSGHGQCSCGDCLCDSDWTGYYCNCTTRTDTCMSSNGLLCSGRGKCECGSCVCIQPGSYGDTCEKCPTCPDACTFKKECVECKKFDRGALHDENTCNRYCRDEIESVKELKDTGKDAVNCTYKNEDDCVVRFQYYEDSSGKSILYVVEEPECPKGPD

RGDY(OMe)KE [C1]
selectivity for αIIbβ3 integrin (αIIbβ3 integrin): high selectivity for αIIbβ3 integrin
fibrinogen binding to αIIbβ3 (αIIbβ3 integrin; 2 nM peptide): 59%
effect on the binding of αIIbβ3 to fibrinogen (αIIbβ3 integrin; nanomolar concentrations): significant effect

H-KPQVTRGDVFTEG-NH2 [A11, linear peptide, reference compound]
effect on the binding of fibronectin to α5β1 (α5β1 integrin; [5]): no effect
effect on the binding of fibrinogen to αIIbβ3 (αIIbβ3 integrin; 20 μM): significant effect
effect on the binding of vitronectin to αvβ5 (αvβ5 integrin; [5]): no effect
effect on fibronectin binding to αvβ3 (αvβ3 integrin; 2 μM): little effect
fibronectin binding to αvβ3, % of the maximum signal (αvβ3 integrin; 20 μM peptide): 58.7%

RGDY(OMe)K [A7]
adhesion of [51Cr]-VUP cells to vitronectin, normalized to absence of peptide (100%) (VUP melanoma cell line [1]): 78.65%±3.98%
adhesion of [51Cr]-VUP cells to laminin, normalized to absence of peptide (100%) (VUP melanoma cell line [2]): 64.17%±1.31%
adhesion of [51Cr]-A375M cells to laminin, normalized to absence of peptide (100%) (A375M melanoma cell line [3]): 75.08%±1.53%
effect on α5β1 binding to fibronectin (α5β1 integrin; 2 μM and 20 μM): little effect
effect on αvβ5 binding to vitronectin (αvβ5 integrin; 2 μM and 20 μM): little effect
adhesion of [51Cr]-A375M cells to vitronectin, normalized to absence of peptide (100%) (A375M melanoma cell line [4]): 106.99±1.66%

COc1ccc(C[C@@H]2NC(=O)[C@H](CC(=O)O)NC(=O)CNC(=O)[C@H](CCCNC(=N)N)NC(=O)[C@H](CCCCNC(=O)c3ccc(F)cc3)NC2=O)cc1 [C7, 4-[^19F]-fluorobenzoyl cyclic (RGDY(OMe)K)]
fibronectin binding to α5β1, % of the maximum signal (α5β1 integrin; 2 μM peptide): 47%
IC50 (α5β1 integrin; text b200, read-out: IC50 for α5β1): 481 nM
vitronectin binding to αvβ5, % of the maximum signal (αvβ5 integrin; 2 μM peptide, 100% = signal without peptide): 26.1%
IC50 (αvβ5 integrin; text b200, read-out: IC50 for αvβ5): 1690 nM
